Where two headings read alike, the source gives them in different places.
Key:
HIF-1a = assay: Western blot model: HIF1-a stabilization in Hep3b cells under hypoxia; format: cell-based; settings: hypoxia 1% O2, 6 hours; for Western Blot (range of decrease of HIF1-a stabilization): class symbol
Procedure: Since it was sought to determine the efficacy of the compounds to inhibit HIF1a stabilization under hypoxia, the compounds according to the invention underwent biochemical studies in order to determine their capacity to decrease HIF stabilization in Hep3b cells under hypoxia (western blot model).
Hep3B cells are seeded at a rate of 300000 cells per well in 6-wells culture plate in 2 ml of MEM supplemented with glutamin (2 mM) and 10% FCS (foetal calf serum) and incubated at 37° C. in the presence of 5% CO2. The next day, the cells are placed in contact with the compound and an incubation under hypoxia at 1% O2 is carried out at 37° C. in 95% humidity and 5% CO2 in a sealed anaerobic workstation (Hypoxystation H35-Don Whitley—AES Chemunex) during 6 hours.
Cells were washed (PBS) and lysed in SDS sample buffer. Proteins (25 μg) were separated on 4-12% Bis-Tris gels and transferred onto polyvinylidene difluoride membranes (Millipore). Membranes were blotted with a mouse monoclonal antibody to HIF-1a (BD transduction) and a mouse monoclonal anti-βactin (Sigma). Immunoreactive bands were detected with a horse radish peroxydase (HRP) anti-mouse antibody (Sigma) by enhanced chemiluminescence (Promega).
The inhibitory activity of the compounds for their capacity to decrease HIF1-a stabilization in Hep3b under hypoxia is expressed as range of percentage relative to control with: […]

[1] = tested on: mitochondrial ATP production on non-small cell lung carcinoma cell lines NCI-H460; assay: Mitochondrial ATP analysis (Cell Titer Glo) in NCI-H460 cells; format: cell-based; settings: 1-hour incubation, with sodium iodoacetate (100 μM), concentration inhibiting 50% of mitochondrial ATP production, read-out: IC50 (mito ATP)
Procedure: In order to evaluate the inhibitory activity of the all compounds, an in vitro assay was developed which read out is directly linked to mitochondrial complex 1 inhibition. Since mitochondrial complex 1 contributes to the formation of membrane potential coupled to the mitochondrial ATP synthesis, complex 1 inhibition directly leads in cells to the inhibition of mitochondrial ATP production. Cellular ATP contents were measured in presence of either glycolysis inhibitor (sodium iodocetate) and/or mitochondrial inhibitors (F0F1-ATPase inhibitor: oligomycin or mitochondrial uncoupler: FCCP) to determine the ATP production part relying either on glycolytic or on mitochondrial metabolism.
Mitochondrial ATP Analysis
The compounds of the invention were evaluated for their ability to inhibit mitochondrial
ATP was measured using the Promega Cell Titer Glo kit and protocol. In summary, 1,000 cells were plated in 40 μL in a 384 well plate. 24 hours later, medium was replaced by 20 μl culture medium in presence of compounds: cells were treated in replicates of five with control (PBS), oligomycin A (10 μg/ml), FCCP (30 μM), or the compounds of the invention in dose effect both alone or in combination with sodium iodoacetate (100 μM). Following a 1-hour incubation, 20 μL of CellTtiter-glo™ reaction mix were added to each well for a final volume of 40 μL. Plates were then analyzed for luminescence with a Perkin Elmer EnVision. By comparing the different conditions, global ATP and percentages of both glycolytic and mitochondrial ATP were determined.
The mitochondrial ATP production was calculated as the remaining ATP under iodoacetate treatment minus basal ATP (ATP content under iodoacetate and oligomycin treatment). Inhibitory activity of the compounds on mitochondrial ATP in NCI-H460 cells is expressed as the concentration needed to inhibit 50% of mitochondrial ATP production (IC50, M).

IC50 [1]	IC50 ([1]; Homo sapiens, NCI-H460, 1 h)	Structure (SMILES)	Western Blot (decrease of HIF1-a stabilization, percentage relative to control) (HIF-1a)	Western Blot (range of decrease of HIF1-a stabilization) (HIF-1a)
12 nM		COc1ccc(C(O)C(C)(C)Oc2ccc(-c3nc(-c4ccc(OC(C)(C)C(O)c5ccc(OC)c(OC)c5)cc4)c(C)o3)cc2)cc1OC (single isomer, unassigned) [Compound I-4, 1-(3,4-dimethoxyphenyl)-2-[4-[2-[4-[2-(3,4-dimethoxyphenyl)-2-hydroxy-1,1-dimethyl-ethoxy]phenyl]-5-methyl-oxazol-4-yl]phenoxy]-2-methyl-propan-1-ol]	72%	*** (*** represents a decrease of HIF-a stabilization higher than 70%)
	303 nM	COc1ccc(C(O)COc2ccc(-c3csc(-c4ccc(OCC(O)c5ccc(OC)c(OC)c5)cc4)c3)cc2)cc1OC (stereo not drawn) [Compound I-35, 1-(3,4-dimethoxyphenyl)-2-[4-[5-[4-[2-(3,4-dimethoxyphenyl)-2-hydroxy-ethoxy]phenyl]-3-thienyl]phenoxy]ethanol]	68%	** (** represents a decrease of HIF-a stabilization between 50 to 70%)
	676 nM	COc1ccc(C(O)COc2ccc(-c3noc(-c4ccc(OCC(O)c5ccc(OC)c(OC)c5)cc4)n3)cc2)cc1OC (stereo not drawn) [Compound I-36, 1-(3,4-dimethoxyphenyl)-2-[4-[5-[4-[2-(3,4-dimethoxyphenyl)-2-hydroxy-ethoxy]phenyl]-1,2,4-oxadiazol-3-yl]phenoxy]ethanol]	62%	** (** represents a decrease of HIF-a stabilization between 50 to 70%)
133 nM		COc1ccc(C(O)C(C)(C)Oc2ccc(-c3noc(-c4ccc(OC(C)(C)C(O)c5ccc(OC)c(OC)c5)cc4)n3)cc2)cc1OC (stereo not drawn) [Compound I-38, 1-(3,4-dimethoxyphenyl)-2-[4-[5-[4-[2-(3,4-dimethoxyphenyl)-2-hydroxy-11-dimethyl-ethoxy]phenyl]-1,2,4-oxadiazol-3-yl]phenoxy]-2-methyl-propan-1-ol]	79%	*** (*** represents a decrease of HIF-a stabilization higher than 70%)
	435 nM	COc1ccc(C(O)C(C)(C)Oc2ccc(-c3c[nH]c(-c4ccc(OC(C)(C)C(O)c5ccc(OC)c(OC)c5)cc4)n3)cc2)cc1OC (single isomer, unassigned) [Compound I-55, 1-(3,4-dimethoxyphenyl)-2-[4-[2-[4-[2-(3,4-dimethoxyphenyl)-2-hydroxy-1,1-dimethyl-ethoxy]phenyl]-1H-imidazol-4-yl]phenoxy]-2-methyl-propan-1-ol]	62%	** (** represents a decrease of HIF-a stabilization between 50 to 70%)
1280 nM		COc1cc(C(O)COc2ccc(-c3coc(-c4ccc(OCC(O)c5cc(OC)c(OC)c(OC)c5)cc4)n3)cc2)cc(OC)c1OC (single isomer, unassigned) [Compound I-22, 2-[4-[2-[4-[2-hydroxy-2-(3,4,5-trimethoxyphenyl)ethoxy]phenyl]oxazol-4-yl]phenoxy]-1-(3,4,5-trimethoxyphenyl)ethanol]	57%	** (** represents a decrease of HIF-a stabilization between 50 to 70%)
	458 nM	COc1ccc(C(O)COc2ccc(-c3cn(C)c(-c4ccc(OCC(O)c5ccc(OC)c(OC)c5)cc4)n3)cc2)cc1OC (stereo not drawn) [Compound I-58, 1-(3,4-dimethoxyphenyl)-2-[4-[2-[4-[2-(3,4-dimethoxyphenyl)-2-hydroxy-ethoxy]phenyl]-1-methyl-imidazol-4-yl]phenoxy]ethanol]	56%	** (** represents a decrease of HIF-a stabilization between 50 to 70%)
> 10000 nM		COc1ccc(C(O)COc2ccc(-c3noc(-c4ccc(OCC(O)c5ccc(OC)c(OC)c5)cc4)n3)cc2)cc1OC (single isomer, unassigned) [Compound I-48, 1-(3,4-dimethoxyphenyl)-2-[4-[5-[4-[2-(3,4-dimethoxyphenyl)-2-hydroxy-ethoxy]phenyl]-1,2,4-oxadiazol-3-yl]phenoxy]ethanol]	87%	*** (*** represents a decrease of HIF-a stabilization higher than 70%)
	8.85 nM	COc1ccc(C(O)C(C)(C)Oc2ccc(-c3nc(-c4ccc(OC(C)(C)C(O)c5ccc(OC)c(OC)c5)cc4)c(C)o3)cc2)cc1OC (single isomer, unassigned) [Compound I-3, 1-(3,4-dimethoxyphenyl)-2-[4-[2-[4-[2-(3,4-dimethoxyphenyl)-2-hydroxy-1,1-dimethyl-ethoxy]phenyl]-5-methyl-oxazol-4-yl]phenoxy]-2-methyl-propan-1-ol]	70%	*** (*** represents a decrease of HIF-a stabilization higher than 70%)
	7.32 nM	COc1ccc(C(O)C(C)(C)Oc2ccc(-c3csc(-c4ccc(OC(C)(C)C(O)c5ccc(OC)c(OC)c5)cc4)n3)cc2)cc1OC (stereo not drawn) [Compound I-26, 1-(3,4-dimethoxyphenyl)-2-[4-[2-[4-[2-(3,4-dimethoxyphenyl)-2-hydroxy-1,1-dimethyl-ethoxy]phenyl]thiazol-4-yl]phenoxy]-2-methyl-propan-1-ol]	39%	* (* represents a decrease of HIF-a stabilization between 30 to 50%)
	94.3 nM	COc1ccc(C(O)C(C)(C)Oc2ccc(-c3noc(-c4ccc(OC(C)(C)C(O)c5ccc(OC)c(OC)c5)cc4)n3)cc2)cc1OC (single isomer, unassigned) [Compound I-37, 1-(3,4-dimethoxyphenyl)-2-[4-[5-[4-[2-(3,4-dimethoxyphenyl)-2-hydroxy-1,1-dimethyl-ethoxy]phenyl]-1,2,4-oxadiazol-3-yl]phenoxy]-2-methyl-propan-1-ol]	74%	*** (*** represents a decrease of HIF-a stabilization higher than 70%)
245 nM		COc1ccc(C(O)C(C)(C)Oc2ccc(-c3coc(-c4ccc(OC(C)(C)C(O)c5ccc(OC)c(OC)c5)cc4)n3)cc2)cc1OC (single isomer, unassigned) [Compound I-19, 1-(3,4-dimethoxyphenyl)-2-[4-[2-[4-[2-(3,4-dimethoxyphenyl)-2-hydroxy-1,1-dimethyl-ethoxy]phenyl]oxazol-4-yl]phenoxy]-2-methyl-propan-1-ol]	56%	** (** represents a decrease of HIF-a stabilization between 50 to 70%)
	353 nM	COc1ccc(C(O)COc2ccc(-c3nc(-c4ccc(OCC(O)c5ccc(OC)c(OC)c5)cc4)c(C)o3)cc2)cc1OC (stereo not drawn) [Compound I-1, 1-(3,4-dimethoxyphenyl)-2-[4-[2-[4-[2-(3,4-dimethoxyphenyl)-2-hydroxy-ethoxy]phenyl]-5-methyl-oxazol-4-yl]phenoxy]ethanol]	48%	* (* represents a decrease of HIF-a stabilization between 30 to 50%)

Reference: patent US20170313674A1, “BENZYLHYDROXIDE DERIVATIVES, PREPARATION THEREOF AND THERAPEUTIC USE THEREOF” (SANOFI, priority 2014, published 2017)
